In patent publication US8367829B2, “Bi-functional pyrazolopyridine compounds” (Gilead Sciences, Inc., priority 2010, dated 2013):

Assays:
Human recombinant PDE4B2 = biological target: T1, Human recombinant PDE4B2 (Homo sapiens, UniProt Q07343); assay: Inhibition of PDE4B2 enzyme activity (PDE Glo Assay); assay type: biochemical; details: human recombinant PDE4B2, 50 nM cAMP; read-out: PDE4 IC50
T1 construct: purchased BPS Bioscience
Protocol: Inhibition of PDE4B4 Enzyme Activity
The inhibitory activity of test compounds were determined using the PDE Glo Assay (Promega, V1361). The PDE-Glo Reaction Buffer was prepared (1 mL 5× buffer+4 mL water) and 150 nM solution of test compound dissolved in the Reaction Buffer, followed by 1:3 serial dilutions into Reaction Buffer. […] Human recombinant PDE4B2 (BPS Bioscience) was added to test compound in Reaction Buffer at a concentration of 0.12 nM per reaction. The enzyme and test compound were pre-incubated together at rt for 10 min. 50 nM of the enzyme substrate cAMP was then added to initiate the enzyme reaction, with the reaction terminated after one hour. Termination Buffer (1 mL 5× termination buffer+3.9 mL water+100 μL of 100 mM IBMX (ICN Chemicals, in DMSO)), was added to each reaction well to terminate the reaction. Detection Buffer (1 mL 5×PDE-Glo Detection buffer+3.96 mL water+40 μL PKA (supplied in kit)) was added to the cAMP-enzyme-test compound mix and this secondary reaction proceeded for 20 minutes at rt. An equal volume of Kinase Glo Reagent was then added to the reaction mixture and after 10 min luminescence was measured using a luminometer (EnVision, 0.1 sec read for luminescence). Luminescence values were […] related to levels of cAMP in the reaction mixture. Data were plotted as relative light units (RLU) versus test compound concentration and the IC50 determined using GraphPad Prism 5.0, using a nonlinear curve fit in a single-site binding model.
IC50 determinations for the compounds presented above are seen in the first column of Table 1 (PDE4 IC50).

[1] = biological target: T2, human recombinant beta-2 adrenoreceptors (Homo sapiens, UniProt P07550); assay: Beta-2 adrenoceptor binding assay, displacement of [3H](−)CGP-12177; details: CHO cells expressing human beta-2 adrenoreceptors, [3H](−)CGP-12177 0.3 nM, 120 min
T2 construct: expressed in transfected cells; host or cells: CHO cells
T2 sequence (P07550 whole entry): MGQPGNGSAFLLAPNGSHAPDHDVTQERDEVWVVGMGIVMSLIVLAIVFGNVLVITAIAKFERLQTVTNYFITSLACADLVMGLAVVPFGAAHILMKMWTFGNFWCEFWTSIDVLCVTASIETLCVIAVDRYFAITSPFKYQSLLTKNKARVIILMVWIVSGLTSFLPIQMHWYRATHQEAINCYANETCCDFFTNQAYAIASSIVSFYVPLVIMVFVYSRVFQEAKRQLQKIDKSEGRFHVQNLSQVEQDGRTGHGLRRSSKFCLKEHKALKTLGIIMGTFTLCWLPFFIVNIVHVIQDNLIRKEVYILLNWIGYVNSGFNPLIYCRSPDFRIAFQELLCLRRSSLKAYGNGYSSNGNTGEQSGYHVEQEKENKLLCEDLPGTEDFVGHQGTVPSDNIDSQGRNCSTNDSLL
Protocol: Beta-2 Adrenoceptor Binding Assay
Test compounds were incubated for 120 min with Chinese hamster oocyte (CHO) cells expressing the human recombinant beta-2 adrenoreceptors. Binding of test compounds to the beta-2 adrenoreceptors was determined by measuring the displacement of the radiolabeled ligand [^3H](−)CGP-12177 (0.3 nM) from the receptor measured by a scintillation counting. Concentration response curves were generated for test compounds and the IC50 (molar concentration of the compound which produced 50% inhibition for the maximal response for that compound) was determined. These assays were performed using a protocol based on the original description of the assay by Joseph et al., (2004) Naun.-Sch. Arch. Pharm.; 369:525-532.
IC50 determinations for the compounds presented above are seen in the second column of Table 1 (Beta 2 IC50).

[2] = biological target: T2, human recombinant beta-2 adrenoreceptors; assay: Functional agonism of human recombinant beta-2 adrenoreceptors expressed in CHO cells (cAMP, HTRF); assay type: cell-based; details: cAMP elevation, 30 min
Protocol: Functional Agonism of Human Recombinant Beta-2 Adrenoreceptors Expressed in Chinese Hamster Oocytes (CHO)
Test compounds were incubated for 30 min with CHO cells expressing the human recombinant beta-2 adrenoreceptors. Agonism of the receptor was measured by the elevation of intracellular cyclic-AMP over control levels detected using a homogeneous time resolved fluorescence (HTRF) format. Compounds were determined to be “full” or “partial” agonists based on the maximum level of cAMP accumulated compared to the control compound isoproterenol which is a full agonist in this assay system. Concentration response curves were generated for test compounds and the EC50 (molar concentration of the agonist which produced 50% of the maximal response for that compound) was determined. These assays were performed using a protocol based on the original description of the assay by Baker, J. G. (2005) Brit. J. Pharmacol.; 144:317-322.
EC50 determinations for the compounds presented above are seen in the third column of Table 1 (Beta 2 EC50).

[3] = tested on: LPS-induced TNF-α release from human peripheral blood mononuclear cells (PBMC); assay: Inhibition of LPS-induced TNF-α release from human PBMC; assay type: cell-based; details: LPS 0.4 ng/mL, 6 h, presence or absence of ICI-118551 not given
Excerpt: Inhibition of Lipopolysaccharide (LPS)-Induced Tumour Necrosis Factor Alpha (TNF-α) Release from Human Peripheral Blood Mononuclear Cells (PBMC)
Human whole blood was drawn from donors and cell purification initiated within two hours. Peripheral blood mononuclear cells (PBMC) were purified using a standard Ficoll gradient purification technique and aliquoted at a concentration of 100,000 cells/well in 96 well plates. Beta-2 adrenoreceptor agonists are also anti-inflammatory for some immune cells expressing the receptor and in this assay they can inhibit tumor necrosis factor-alpha (TNF-α) production. Therefore PBMC were pre-incubated for 30 min in the presence of the beta-2 adrenoreceptor antagonist ICI-118551 (3-(isopropylamino)-1-[(7-methyl-4-indanyl)oxy]butan-2-ol) (10 μM) to determine the PDE4 directed activity of test compounds, and in the absence of ICI-118551 for the combined PDE4 and beta-2 receptor directed activity. Test compounds were dissolved in DMSO and diluted in buffer (final DMSO concentration of 0.1% v/v) and were then added to the cell suspensions and pre-incubated for a further 1 h at 37° C. LPS solution was then added (0.4 ng/mL) and the cells incubated for a further 6 h. At the end of the incubation period the cell supernatants were collected and TNF-α was measured using a Procarta Cytokine Assay Kit (Affymetrix, Santa Clara, Calif.) according to the manufacturers' instructions. Data were analyzed using MiraiBio Masterplex QT v4.0 software (MasterPlex Version 1.0.1.18 Copyright 2008, Hitachi Software Engineering Co., Ltd) and used to extrapolate Mean Fluorescence Intensity (MFI) into concentrations of TNF-α and mean values from replicate wells were determined. Inhibition curves were plotted using a nonlinear curve fit employing a single-site binding model to determine the IC50 value for each test compound in the presence or absence of ICI-118551 using GraphPad Prism 5 for Windows, version 5.02 (GraphPad Software, San Diego Calif.).
EC50 determinations for the compounds presented above are seen in the fourth column of Table 1 (PBMC TNF EC50).

T1 sequence (Q07343 1-564 isoform Q07343-2): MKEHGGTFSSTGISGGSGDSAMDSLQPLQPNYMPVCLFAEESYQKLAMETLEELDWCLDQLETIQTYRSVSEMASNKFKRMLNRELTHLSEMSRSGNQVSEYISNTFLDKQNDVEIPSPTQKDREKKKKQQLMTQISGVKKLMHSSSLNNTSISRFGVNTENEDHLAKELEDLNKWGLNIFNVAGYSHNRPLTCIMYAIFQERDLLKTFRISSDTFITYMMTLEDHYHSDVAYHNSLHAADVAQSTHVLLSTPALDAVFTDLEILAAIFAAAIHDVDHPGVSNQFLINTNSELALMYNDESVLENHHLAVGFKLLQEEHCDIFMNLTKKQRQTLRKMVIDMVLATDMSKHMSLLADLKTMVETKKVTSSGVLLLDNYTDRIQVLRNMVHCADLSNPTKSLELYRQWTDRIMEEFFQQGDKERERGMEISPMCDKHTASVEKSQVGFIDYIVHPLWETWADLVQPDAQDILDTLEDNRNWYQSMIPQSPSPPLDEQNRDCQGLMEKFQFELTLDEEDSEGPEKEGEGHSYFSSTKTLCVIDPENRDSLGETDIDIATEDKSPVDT

Row | Structure (SMILES) | IC50 (Human recombinant PDE4B2) | IC50 [1] | EC50 [2] | EC50 [3]
1 | CCc1nc2c(cnn2CC)c(NC2CCOCC2)c1CNC(=O)c1ccc(CCCCCNC[C@H](O)c2ccc(O)c3[nH]c(=O)ccc23)cc1 [Example 9, (R)—N-[[1,6-diethyl-4-[(tetrahydro-2H-pyran-4-yl)amino]-1H-pyrazolo[3,4-b]pyridin-5-yl]methyl]-4-[5-[[2-hydroxy-2-(8-hydroxy-2-oxo-1,2-dihydroquinolin-5-yl)ethyl]amino]pentyl]benzamide] | < 0.1 µM | < 0.1 µM | < 0.1 µM | < 0.1 µM
2 | CCc1nc2c(cnn2CC)c(NC2CCOCC2)c1CNc1c(Nc2ccc(CCCCCNC[C@H](O)c3ccc(O)c4[nH]c(=O)ccc34)cc2)c(=O)c1=O [Example 13, (R)-3-(((1,6-diethyl-4-((tetrahydro-2H-pyran-4-yl)amino)-1H-pyrazolo[3,4-b]pyridin-5-yl)methyl)amino)-4-((4-(5-((2-hydroxy-2-(8-hydroxy-2-oxo-1,2-dihydroquinolin-5-yl)ethyl)amino)pentyl)phenyl)amino)cyclobut-3-ene-1,2-dione] |  | < 0.1 µM | < 0.1 µM | < 0.1 µM
3 | CCc1nc2c(cnn2CC)c(NC2CCOCC2)c1CNC(=O)c1cccc(CNC[C@H](O)c2ccc(O)c3[nH]c(=O)ccc23)c1 [Example 5, (R)—N-[[1,6-Diethyl-4-[(tetrahydro-2H-pyran-4-yl)amino]-1H-pyrazolo[3,4-b]pyridin-5-yl]methyl]-3-[[[2-hydroxy-2-(8-hydroxy-2-oxo-1,2-dihydroquinolin-5-yl)ethyl]amino]methyl]benzamide] | < 0.1 µM | < 0.3 µM | < 0.1 µM | < 0.1 µM
4 | CCc1nc2c(cnn2CC)c(NC2CCOCC2)c1CNC(=O)c1cccc(CNC[C@H](O)c2ccc(O)c(CO)c2)c1 [Example 7, (R)—N-[[1,6-Diethyl-4-[(tetrahydro-2H-pyran-4-yl)amino]-1H-pyrazolo[3,4-b]pyridin-5-yl]methyl]-3-[[[2-hydroxy-2-[4-hydroxy-3-(hydroxymethyl)phenyl]ethyl]amino]methyl]benzamide] | < 0.1 µM | > 0.3 µM | > 0.3 µM | > 0.3 µM
5 | CCc1nc2c(cnn2CC)c(NC2CCOCC2)c1CNC(=O)Nc1ccc(C#CCCCNC[C@H](O)c2ccc(O)c3[nH]c(=O)ccc23)cc1 [Example 11] | < 0.1 µM | < 0.1 µM | < 0.1 µM | < 0.1 µM
6 | CCc1nc2c(cnn2CC)c(NC2CCOCC2)c1CNC(=O)c1cccc(CC(C)NC[C@H](O)c2ccc(O)c(CO)c2)c1 (stereo partly drawn) [Example 2, N-[[1,6-Diethyl-4-[(tetrahydro-2H-pyran-4-yl)amino]-1H-pyrazolo[3,4-b]pyridin-5-yl]methyl]-3-[2-[[(R)-2-hydroxy-2-[4-hydroxy-3-(hydroxymethyl)phenyl]ethyl]amino]propyl]benzamide] | < 0.1 µM | > 0.3 µM | < 0.1 µM | < 0.1 µM
7 | CCc1nc2c(cnn2CC)c(NC2CCOCC2)c1CNC(=O)c1cccc(CC(C)(C)NC[C@H](O)c2ccc(O)c3[nH]c(=O)ccc23)c1 [Example 4, (R)—N-[[1,6-Diethyl-4-[(tetrahydro-2H-pyran-4-yl)amino]-1H-pyrazolo[3,4-b]pyridin-5-yl]methyl]-3-[2-[[2-hydroxy-2-(8-hydroxy-2-oxo-1,2-dihydroquinolin-5-yl)ethyl]-amino]-2-methylpropyl]benzamide] | < 0.1 µM | < 0.1 µM | < 0.1 µM | < 0.1 µM
8 | CCc1nc2c(cnn2CC)c(NC2CCOCC2)c1CNC(=O)c1ccc(CNC[C@H](O)c2ccc(O)c(CO)c2)cc1 [Example 8, (R)—N-[[1,6-diethyl-4-[(tetrahydro-2H-pyran-4-yl)amino]-1H-pyrazolo[3,4-b]pyridin-5-yl]methyl]-4-[[[2-hydroxy-2-[4-hydroxy-3-(hydroxymethyl)phenyl]ethyl]amino]methyl]benzamide] | < 0.1 µM | > 0.3 µM | > 0.3 µM | < 0.3 µM
9 | CCc1nc2c(cnn2CC)c(NC2CCOCC2)c1CNC(=O)c1cccc(CC(C)NC[C@H](O)c2ccc(O)c3[nH]c(=O)ccc23)c1 (stereo partly drawn) [Example 1, N-[[1,6-Diethyl-4-[(tetrahydro-2H-pyran-4-yl)amino]-1H-pyrazolo[3,4-b]pyridin-5-yl]methyl]-3-[2-[[(R)-2-hydroxy-2-(8-hydroxy-2-oxo-1,2-dihydroquinolin-5-yl)ethyl]amino]propyl]benzamide] | < 0.1 µM | < 0.1 µM | < 0.1 µM | < 0.1 µM
10 | CCc1nc2c(cnn2CC)c(NC2CCOCC2)c1CNC(=O)Nc1ccc(CCCCOCCCCCCNC[C@H](O)c2ccc(O)c3[nH]c(=O)ccc23)cc1 [Example 14, (R)-1-((1,6-diethyl-4-((tetrahydro-2H-pyran-4-yl)amino)-1H-pyrazolo[3,4-b]pyridin-5-yl)methyl)-3-(4-(4-((6-((2-hydroxy-2-(8-hydroxy-2-oxo-1,2-dihydroquinolin-5-yl)ethyl)amino)hexyl)oxy)butyl)phenyl)urea] |  | < 0.1 µM | < 0.1 µM | < 0.1 µM
11 | CCc1nc2c(cnn2CC)c(NC2CCOCC2)c1CNC(=O)c1cccc(CC(C)(C)NC[C@H](O)c2ccc(O)c(CO)c2)c1 [Example 3, (R)—N-[[1,6-Diethyl-4-[(tetrahydro-2H-pyran-4-yl)amino]-1H-pyrazolo[3,4-b]pyridin-5-yl]methyl]-3-[2-[[2-hydroxy-2-[4-hydroxy-3-(hydroxymethyl)phenyl]ethyl]amino]-2-methylpropyl]benzamide] | < 0.1 µM | < 0.3 µM | < 0.3 µM | < 0.1 µM
12 | CCc1nc2c(cnn2CC)c(NC2CCOCC2)c1CNC(=O)c1ccc(CNC[C@H](O)c2ccc(O)c3[nH]c(=O)ccc23)cc1 [Example 6, (R)—N-[[1,6-diethyl-4-[(tetrahydro-2H-pyran-4-yl)amino]-1H-pyrazolo[3,4-b]pyridin-5-yl]methyl]-4-[[[2-hydroxy-2-(8-hydroxy-2-oxo-1,2-dihydroquinolin-5-yl]ethyl]amino]methyl]benzamide] | < 0.1 µM | > 0.3 µM | < 0.1 µM | < 0.1 µM
13 | CCc1nc2c(cnn2CC)c(NC2CCOCC2)c1CNC(=O)Nc1ccc(C#CCCCNC[C@H](O)c2ccc(O)c3c2OCC(=O)N3)cc1 [Example 15] |  | < 0.1 µM | < 0.1 µM | < 0.1 µM
